Where two headings read alike, the source gives them in different places.
Conditions: 1 mg single oral dose, fasting
Description: The data used in this work were obtained from four bioequivalence clinical trials conducted at the Clinical Trials Unit of the Hospital Universitario de La Princesa (UECHUP) (EUDRA-CT IDs: 2012-004433-17, 2013-002159-14, 2014-001123-77 and 2021-000315-23). […] The reference formulation (R) in all cases was Azilect® 1 mg tablets (TEVA Pharmaceuticals Europe B.V.), which was compared against different test formulations (T), all of them 1 mg tablets, except in clinical trial 3, whose test formulation was orodispersible 1 mg. The four bioequivalence trials had two periods and two sequences (TR and RT). In the first period, the volunteers randomly were administered one of the two formulations and, in the following period, after a 7-day washout period, the opposite formulation. All of them were reviewed and approved by Independent Ethics Board (IEB) of the Hospital Universitario de La Princesa, and by the Spanish Drug Agency (AEMPS). In addition, they were performed in accordance with the guidelines of the International Conference on Harmonization for Good Clinical Practice (ICH-GCP), current Spanish legislation and the Revised Declaration of Helsinki. The pharmacogenetic study (SFC-FG-2020-1) was likewise approved by the IEB of Hospital Universitario de La Princesa (registry number 4176, 9 July 2020).
In each period, the drug was administered under fasting conditions, which were maintained until 5 h after drug administration. Each subject provided 20 or 21 blood samples (depending on the clinical trial) that were extracted by BD Vacutainer® vacuum system with EDTA K2 tubes for analysis at different times between 0 h (before receiving the drug) and up to 12 h after drug intake. […] A high-performance liquid chromatography coupled to triple quadrupole mass spectrometry (HPLC-MS/MS) analytical method was used. The latter was validated according to European regulations for bioequivalence assessment, with a lower limit of quantification (LLOQ) of 10 pg/mL and a calibration range of 10–10,000 pg/mL.
Pharmacokinetic parameters were calculated with WinNonlin Professional (Scientific Consulting, Inc., Cary, NC, USA) following a non-compartmental model. The area under the curve (AUC0-t), was obtained by the trapezoidal method. The extrapolation to infinity (AUC0-∞) was determined by the sum of two partial AUCs: AUCt-∞ calculated by the ratio Ct/k, where Ct is the last detectable concentration and k the elimination slope; plus AUC0-t. Cmax and tmax were directly obtained from the plasma time-concentration curves. t1/2 was calculated as Ln2/k. Plasma clearance adjusted for bioavailability (Cl/F) was calculated as dose/AUC. Finally, the volume of distribution adjusted for bioavailability (Vd/F) was calculated by dividing Cl/F by k.
The SPSS software (v23.0, SPSS Inc., Chicago, IL, USA) was used for statistical analyses. AUC0-∞, and Cmax were divided by the dose/weight (DW) ratio to correct sex-related variability related to a varying weight. For the same purpose, Vd/F and Cl/F were divided by weight. With the purpose of normalizing their distributions, all pharmacokinetic parameters were logarithmically transformed for statistical analysis. Initially, a univariate analysis was conducted of the demographic characteristics according to sex and ethnicity, and of the pharmacokinetic parameters or ADR incidence based on sex, biogeographical group (hereinafter, “ethnicity”), genotypes and phenotypes. T-tests were used for the comparison of means for variables with two categories and ANOVA tests for variables with three or more categories, followed by a Bonferroni post-hoc. The Shapiro–Wilk test was used to address the normality of demographic characteristics. For those not following a normal distribution, the nonparametric Kruskal–Wallis test was used.

[1] = CYP1A2 *1N/*1K, *1N/*1L, *1N/*1L and *1N/*1G merged, n=4

Question: For `C#CCN[C@@H]1CCc2ccccc21` [rasagiline, Rasagiline], which “lower tmax value, ABCC2 rs2273697 A/A vs G allele carriers” value is on record?
Answer: approximately 50%

Question: And the “AUC0-∞/DW” value (ABCB1 rs1045642 A/A, n=23)?
Answer: 275.48 ± 59.65 ng·kg·h/mL/mg

Question: What about the Cmax/DW (ABCB1 rs1045642 A/A, n=23) of the same molecule?
Answer: 438.76 ± 152.32 ng·kg/mL/mg

Question: What about the t1/2 (ABCB1 rs1045642 A/A, n=23) of the same molecule?
Answer: 2.58 ± 0.63 h

Question: What about the tmax (ABCB1 rs1045642 A/A, n=23) of the same molecule?
Answer: 0.50 ± 0.21 h

Question: What about the “AUC0-∞/DW” value (ABCB1 rs1045642 G/A, n=61) of the same molecule?
Answer: 273.00 ± 83.60 ng·kg·h/mL/mg

Question: What about the Cmax/DW (ABCB1 rs1045642 G/A, n=61) of the same molecule?
Answer: 426.48 ± 179.87 ng·kg/mL/mg

Question: What about the t1/2 (ABCB1 rs1045642 G/A, n=61) of the same molecule?
Answer: 2.63 ± 1.04 h

Question: And the tmax (ABCB1 rs1045642 G/A, n=61)?
Answer: 0.51 ± 0.27 h

Question: What about the “AUC0-∞/DW” value (ABCB1 rs1045642 G/G, n=34) of the same molecule?
Answer: 244.10 ± 63.87 (pm = 0.012) h*ng*kg/mL*mg

Question: What about the Cmax/DW (ABCB1 rs1045642 G/G, n=34) of the same molecule?
Answer: 359.70 ± 127.40 ng·kg/mL/mg

Question: And the t1/2 (ABCB1 rs1045642 G/G, n=34)?
Answer: 2.83 ± 0.73 h

Question: And the tmax (ABCB1 rs1045642 G/G, n=34)?
Answer: 0.47 ± 0.19 h

Question: What about the “AUC0-∞/DW” value (ABCC2 rs2273697 A/A, n=3) of the same molecule?
Answer: 350.15 ± 86.34 ng·kg·h/mL/mg

Question: What about the Cmax/DW (ABCC2 rs2273697 A/A, n=3) of the same molecule?
Answer: 579.28 ± 133.19 ng·kg/mL/mg

Question: What about the t1/2 (ABCC2 rs2273697 A/A, n=3) of the same molecule?
Answer: 3.01 ± 0.49 h

Question: What about the tmax (ABCC2 rs2273697 A/A, n=3) of the same molecule?
Answer: 0.22 ± 0.09 (pu = 0.005, pm = 0.001) ^& h

Question: And the “AUC0-∞/DW” value (ABCC2 rs2273697 G/A, n=42)?
Answer: 264.50 ± 74.33 ng·kg·h/mL/mg

Question: And the Cmax/DW (ABCC2 rs2273697 G/A, n=42)?
Answer: 411.51 ± 152.39 ng·kg/mL/mg

Question: What about the t1/2 (ABCC2 rs2273697 G/A, n=42) of the same molecule?
Answer: 2.59 ± 0.90 h

Question: What about the tmax (ABCC2 rs2273697 G/A, n=42) of the same molecule?
Answer: 0.48 ± 0.19 h

Question: What about the “AUC0-∞/DW” value (ABCC2 rs2273697 G/G, n=73) of the same molecule?
Answer: 262.04 ± 73.57 ng·kg·h/mL/mg

Question: And the Cmax/DW (ABCC2 rs2273697 G/G, n=73)?
Answer: 401.58 ± 167.92 ng·kg/mL/mg

Question: What about the t1/2 (ABCC2 rs2273697 G/G, n=73) of the same molecule?
Answer: 2.71 ± 0.89 h

Question: And the tmax (ABCC2 rs2273697 G/G, n=73)?
Answer: 0.51 ± 0.26 h

Question: What about the “AUC0-∞/DW” value (COMT rs4680 A/A, n=26) of the same molecule?
Answer: 236.37 ± 68.34 (pu = 0.018, pm = 0.008) h*ng*kg/mL*mg

Question: What about the Cmax/DW (COMT rs4680 A/A, n=26) of the same molecule?
Answer: 355.69 ± 168.61 (pu = 0.012, pm = 0.035) ng*kg/mL*mg

Question: What about the t1/2 (COMT rs4680 A/A, n=26) of the same molecule?
Answer: 2.74 ± 1.00 h

Question: And the tmax (COMT rs4680 A/A, n=26)?
Answer: 0.50 ± 0.22 h

Question: And the “AUC0-∞/DW” value (COMT rs4680 G/A, n=56)?
Answer: 285.72 ± 81.43 ng·kg·h/mL/mg

Question: What about the Cmax/DW (COMT rs4680 G/A, n=56) of the same molecule?
Answer: 450.03 ± 166.19 ng·kg/mL/mg

Question: And the t1/2 (COMT rs4680 G/A, n=56)?
Answer: 2.71 ± 0.95 h

Question: What about the tmax (COMT rs4680 G/A, n=56) of the same molecule?
Answer: 0.47 ± 0.18 h

Question: What about the “AUC0-∞/DW” value (COMT rs4680 G/G, n=36) of the same molecule?
Answer: 253.96 ± 59.13 ng·kg·h/mL/mg

Question: And the Cmax/DW (COMT rs4680 G/G, n=36)?
Answer: 385.75 ± 140.56 ng·kg/mL/mg

Question: What about the t1/2 (COMT rs4680 G/G, n=36) of the same molecule?
Answer: 2.58 ± 0.68 h

Question: And the tmax (COMT rs4680 G/G, n=36)?
Answer: 0.52 ± 0.32 h

Question: What about the “AUC0-∞/DW” value (CYP1A2 *1B/*1B, n=6) of the same molecule?
Answer: 226.81 ± 52.00 ng·kg·h/mL/mg

Question: And the Cmax/DW (CYP1A2 *1B/*1B, n=6)?
Answer: 411.84 ± 85.38 ng·kg/mL/mg

Question: And the t1/2 (CYP1A2 *1B/*1B, n=6)?
Answer: 1.87 ± 0.6 h

Question: And the tmax (CYP1A2 *1B/*1B, n=6)?
Answer: 0.42 ± 0.18 h

Question: And the “AUC0-∞/DW” value (CYP1A2 *1B/*1F, n=36)?
Answer: 265.27 ± 80.68 ng·kg·h/mL/mg

Question: What about the Cmax/DW (CYP1A2 *1B/*1F, n=36) of the same molecule?
Answer: 426.5 ± 183.44 ng·kg/mL/mg

Question: And the t1/2 (CYP1A2 *1B/*1F, n=36)?
Answer: 2.66 ± 0.9 h

Question: What about the tmax (CYP1A2 *1B/*1F, n=36) of the same molecule?
Answer: 0.44 ± 0.19 h

Question: What about the “AUC0-∞/DW” value (CYP1A2 *1B/*1L, n=4) of the same molecule?
Answer: 275.25 ± 108.77 ng·kg·h/mL/mg

Question: And the Cmax/DW (CYP1A2 *1B/*1L, n=4)?
Answer: 392.87 ± 133.43 ng·kg/mL/mg

Question: What about the t1/2 (CYP1A2 *1B/*1L, n=4) of the same molecule?
Answer: 3.32 ± 1.62 h

Question: What about the tmax (CYP1A2 *1B/*1L, n=4) of the same molecule?
Answer: 0.46 ± 0.16 h

Question: And the “AUC0-∞/DW” value (CYP1A2 *1B/*1N, n=5)?
Answer: 256.33 ± 116.11 ng·kg·h/mL/mg

Question: And the Cmax/DW (CYP1A2 *1B/*1N, n=5)?
Answer: 327.66 ± 320.93 ng·kg/mL/mg

Question: And the t1/2 (CYP1A2 *1B/*1N, n=5)?
Answer: 3 ± 0.78 h

Question: And the tmax (CYP1A2 *1B/*1N, n=5)?
Answer: 0.6 ± 0.28 h

Question: And the “AUC0-∞/DW” value (CYP1A2 *1F/*1F, n=38)?
Answer: 263.28 ± 60.08 ng·kg·h/mL/mg

Question: What about the Cmax/DW (CYP1A2 *1F/*1F, n=38) of the same molecule?
Answer: 403.23 ± 139.11 ng·kg/mL/mg

Question: What about the t1/2 (CYP1A2 *1F/*1F, n=38) of the same molecule?
Answer: 2.69 ± 0.82 h

Question: What about the tmax (CYP1A2 *1F/*1F, n=38) of the same molecule?
Answer: 0.51 ± 0.21 h

Question: What about the “AUC0-∞/DW” value (CYP1A2 *1J/*1N, n=5) of the same molecule?
Answer: 275.39 ± 91.37 ng·kg·h/mL/mg

Question: What about the Cmax/DW (CYP1A2 *1J/*1N, n=5) of the same molecule?
Answer: 435.74 ± 117.78 ng·kg/mL/mg

Question: And the t1/2 (CYP1A2 *1J/*1N, n=5)?
Answer: 2.15 ± 0.83 h

Question: What about the tmax (CYP1A2 *1J/*1N, n=5) of the same molecule?
Answer: 0.43 ± 0.09 h

Question: And the “AUC0-∞/DW” value (CYP1A2 *1L/*1F, n=11)?
Answer: 285.81 ± 77.84 ng·kg·h/mL/mg

Question: And the Cmax/DW (CYP1A2 *1L/*1F, n=11)?
Answer: 389.59 ± 138.34 ng·kg/mL/mg

Question: What about the t1/2 (CYP1A2 *1L/*1F, n=11) of the same molecule?
Answer: 2.55 ± 1.07 h

Question: And the tmax (CYP1A2 *1L/*1F, n=11)?
Answer: 0.64 ± 0.48 h

Question: And the “AUC0-∞/DW” value (CYP1A2 *1L/*1L, n=6)?
Answer: 301.28 ± 89.3 ng·kg·h/mL/mg

Question: What about the Cmax/DW (CYP1A2 *1L/*1L, n=6) of the same molecule?
Answer: 518.16 ± 158.15 ng·kg/mL/mg

Question: What about the t1/2 (CYP1A2 *1L/*1L, n=6) of the same molecule?
Answer: 3.06 ± 0.38 h

Question: And the tmax (CYP1A2 *1L/*1L, n=6)?
Answer: 0.53 ± 0.17 h

Question: And the “AUC0-∞/DW” value [1]?
Answer: 220.53 ± 87.92 ng·kg·h/mL/mg

Question: What about the Cmax/DW [1] of the same molecule?
Answer: 355.79 ± 242.1 ng·kg/mL/mg

Question: What about the t1/2 [1] of the same molecule?
Answer: 2.94 ± 0.69 h

Question: And the tmax [1]?
Answer: 0.5 ± 0.14 h

Question: And the “AUC0-∞/DW” value (CYP2C19 µM, n=3)?
Answer: 205.53 ± 82.32 ng·kg·h/mL/mg

Question: What about the Cmax/DW (CYP2C19 µM, n=3) of the same molecule?
Answer: 347.93 ± 233.78 ng·kg/mL/mg

Question: What about the t1/2 (CYP2C19 µM, n=3) of the same molecule?
Answer: 1.75 ± 0.67 h
